Biological target: T1, recombinant human GR (Homo sapiens, UniProt P04150)
T1 construct: purchased Panvera/Invitrogen P2812 (kit P2893)
T1 sequence (P04150 1-777): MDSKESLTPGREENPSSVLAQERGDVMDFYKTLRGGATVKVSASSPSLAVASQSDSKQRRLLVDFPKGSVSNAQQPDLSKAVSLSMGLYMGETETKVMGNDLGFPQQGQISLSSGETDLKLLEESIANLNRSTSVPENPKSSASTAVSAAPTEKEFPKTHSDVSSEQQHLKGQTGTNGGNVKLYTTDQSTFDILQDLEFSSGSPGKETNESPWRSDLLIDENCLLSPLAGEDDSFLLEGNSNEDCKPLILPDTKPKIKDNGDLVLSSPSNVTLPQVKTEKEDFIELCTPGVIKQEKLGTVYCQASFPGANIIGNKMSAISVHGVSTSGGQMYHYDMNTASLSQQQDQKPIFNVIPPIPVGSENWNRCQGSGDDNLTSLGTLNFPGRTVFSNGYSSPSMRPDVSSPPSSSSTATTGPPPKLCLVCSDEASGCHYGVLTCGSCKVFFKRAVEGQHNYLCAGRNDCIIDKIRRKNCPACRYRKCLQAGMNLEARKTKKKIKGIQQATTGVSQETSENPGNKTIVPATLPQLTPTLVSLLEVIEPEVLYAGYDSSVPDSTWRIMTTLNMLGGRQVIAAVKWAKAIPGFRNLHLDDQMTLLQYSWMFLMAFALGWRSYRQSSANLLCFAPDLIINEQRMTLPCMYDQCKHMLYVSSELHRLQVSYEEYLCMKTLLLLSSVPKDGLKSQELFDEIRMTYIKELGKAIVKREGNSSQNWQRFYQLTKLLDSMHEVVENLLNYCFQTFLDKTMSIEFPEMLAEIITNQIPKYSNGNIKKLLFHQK
Test: Human Glucocorticoid Receptor (GR) Assay, fluorescence polarization competition with GS Red tracer
Settings: 2 hours at room temperature, 100% control 10 μM Dexamethasone, XLfit model 205, read-out: Inhibition of GR binding, IC50
Experimental: Human Glucocorticoid Receptor (GR) Assay The assay is based on a commercial kit from Panvera/Invitrogen (Part number P2893). The assay technology is fluorescence polarization. The kit utilises recombinant human GR (Panvera, Part number P2812), a Fluoromone™ labelled tracer (GS Red, Panvera, Part number P2894) and a Stabilizing Peptide 10X (Panvera, Part number P2815). The GR and Stabilizing Peptide reagents are stored at −70° C. while the GS Red is stored at −20° C. Also included in the kit are 1M DTT (Panvera, Part number P2325, stored at −20° C.) and GR Screening buffer 10X (Panvera, Part number P2814, stored at −70° C. initially but once thawed stored at room temperature). Avoid repeated freeze/thaws for all reagents. The GR Screening buffer 10X comprises 100 mM potassium phosphate, 200 mM sodium molybdate, 1 mM EDTA and 20% DMSO. Test compounds (1 μL) and controls (1 μL) in 100% DMSO were added to black polystyrene 384-well plates (Greiner low volume black flat-bottom, part number 784076). 0% control was 100% DMSO and 100% control was 10 μM Dexamethasone. Background solution (8 μL; assay buffer 10X, Stabilizing Peptide, DTT and ice cold MQ water) was added to the background wells. GS Red solution (7 μL; assay buffer 10X, Stabilizing Peptide, DTT, GS Red and ice cold water) was added to all wells except background wells. GR solution (7 μL; assay buffer 10X, Stabilizing Peptide, DTT, GR and ice cold water) was added to all wells. The plate was sealed and incubated in a dark at room temperature for 2 hours. The plate was read in an Analyst plate reader (LJL Biosystems/Molecular Devices Corporation) or other similar plate reader capable of recording fluorescence polarization (excitation wavelength 530 nm, emission wavelength 590 nm and a dichroic mirror at 561 nm).

SMILES	IC50 [nM]
CCC(=O)O[C@]1(C(=O)SCF)CC[C@H]2[C@@H]3CCC4=Cc5c(cnn5-c5cccc(C(=O)NCC(=O)NC)c5)C[C@]4(C)[C@@]3(F)[C@@H](O)C[C@@]21C [Example 36, (1R,3aS,3bS,10aS, 10bR,11S,12aS)-10b-fluoro-1-{[(fluoromethyl)sulfanyl]carbonyl}-11-hydroxy-10a,12a-dimethyl-7-(3-{[2-(methylamino)-2-oxoethyl]carbamoyl}phenyl)-1,2,3,3a,3b,4,5,7,10,10a, 10b,11,12,12a-tetradecahydrocyclo-penta[5,6]naphtho [1,2-f]indazol-1-yl propanoate]	0.84
CCC(=O)O[C@]1(C(=O)SCF)CC[C@H]2[C@@H]3CCC4=Cc5c(cnn5-c5cccc(C(=O)N6CCC[C@@H]6C(N)=O)c5)C[C@]4(C)[C@H]3[C@@H](O)C[C@@]21C [Example 13, (1R,3aS,3bS,10aR,10bS,11S,12aS)-7-(3-{[(2R)-2-Carbamoylpyrrolidin-1-yl]carbonyl}phenyl)-1-{[(fluoromethyl)sulfanyl]carbonyl}-11-hydroxy-10a,12a-dimethyl-1,2,3,3a,3b,4,5,7,10,10a,10b,11,12,12a-tetradecahydrocyclopenta[5,6]naphtho[1,2-f]indazol-1-yl propanoate]	2.5
CCC(=O)O[C@]1(C(=O)SCC#N)CC[C@H]2[C@@H]3CCC4=Cc5c(cnn5-c5cccc(C(=O)NCC(N)=O)c5)C[C@]4(C)[C@H]3[C@@H](O)C[C@@]21C [Example 11, (1R,3aS,3bS,10aR,10bS,11S,12aS)-7-{3-[(2-Amino-2-oxoethyl)carbamoyl]phenyl}-1-{[(cyanomethyl)sulfanyl]carbonyl}-11-hydroxy-10a,12a-dimethyl-1,2,3,3a,3b,4,5,7,10,10a,10b,11,12,12a-tetradecahydrocyclopenta[5,6]naphtho[1,2-f]indazol-1-yl propanoate]	3.7
CCC(=O)O[C@]1(C(=O)SCF)CC[C@H]2[C@@H]3CCC4=Cc5c(cnn5-c5cccc(C(=O)N[C@@H](C)C(N)=O)c5)C[C@]4(C)[C@@]3(F)[C@@H](O)C[C@@]21C [Example 35, (1R,3aS,3bS,10aS, 10bR,11S,12aS)-7-(3-{[(1S)-2-amino-1-methyl-2-oxoethyl]carbamoyl}phenyl)-10b-fluoro-1-{[(fluoromethyl)sulfanyl]carbonyl}-11-hydroxy-10a,12a-dimethyl-1,2,3,3a,3b,4,5,7,10,10a, 10b,11,12,12a-tetradecahydrocyclo-penta[5,6]naphtho [1,2-f]indazol-1-yl propanoate]	6.5
COCC(=O)O[C@]1(C(=O)SCF)[C@H](C)C[C@H]2[C@@H]3CCC4=Cc5c(cnn5-c5cccc(C(=O)N[C@H](C)C(N)=O)c5)C[C@]4(C)[C@@]3(F)[C@@H](O)C[C@@]21C [Example 29, (1R,2R,3aS,3bS, 10aS,10bR,11S,12aS)-7-(3-{[(1R)-2-amino-1-methyl-2-oxoethyl]carbamoyl}phenyl)-10b-fluoro-1-{[(fluoromethyl)-sulfanyl]carbonyl}-11-hydroxy-2,10a,12a-trimethyl-1,2,3,3a,3b,4,5,7,10, 10a,10b,11,12,12a-tetradecahydrocyclo-penta[5,6]naphtho [1,2-f]indazol-1-yl methoxyacetate]	2.6
COCC(=O)O[C@]1(C(=O)SCF)CC[C@H]2[C@@H]3CCC4=Cc5c(cnn5-c5cccc(C(=O)N6CCC[C@@H]6C(N)=O)c5)C[C@]4(C)[C@H]3[C@@H](O)C[C@@]21C [Example 16, (1R,3aS,3bS,10aR,10bS,11S, 12aS)-7-(3-{[(2R)-2-carba-moylpyrrolidin-1-yl]carbonyl}phenyl)-1-{[(fluoromethyl)sulfanyl]carbonyl}-11-hydroxy-10a,12a-dimethyl-1,2,3,3a,3b,4,5,7,10,10a,10b, 11,12,12a-tetradecahydro-cyclopenta[5,6]naphtho[1,2-f] indazol-1-yl methoxyacetate]	9

More lines, in order of falling IC50, values ahead:

IC50 [nM]	SMILES
8.6	COCC(=O)O[C@]1(C(=O)SC)CC[C@H]2[C@@H]3CCC4=Cc5c(cnn5-c5cccc(C(=O)N6CCC[C@@H]6C(N)=O)c5)C[C@]4(C)[C@@]3(F)[C@@H](O)C[C@@]21C [Example 56, (1R,3aS,3bS,10aS,10bR,11S,12aS)-7-(3-{[(2R)-2-carbamoylpyrrolidin-1-yl]carbonyl}phenyl)-10b-fluoro-11-hydroxy-10a,12a-dimethyl-1-[(methylsulfanyl)carbonyl]-1,2,3,3a,3b,4,5,7,10,10a,10b,11,12,12a-tetradecahydrocyclopenta[5,6]naphtho[1,2-f]indazol-1-yl methoxyacetate]
3.8	CCC(=O)O[C@]1(C(=O)SCF)CC[C@H]2[C@@H]3CCC4=Cc5c(cnn5-c5cccc(C(=O)N(C)CC(N)=O)c5)C[C@]4(C)[C@@]3(F)[C@@H](O)C[C@@]21C [Example 34, (1R,3aS,3bS,10aS, 10bR,11S,12aS)-7-{3-[(2-amino-2-oxoethyl)(methyl)carbamoyl]phenyl}-10b-fluoro-1-{[(fluoromethyl)sulfanyl]carbonyl}-11-hydroxy-10a,12a-dimethyl-1,2,3,3a,3b,4,5,7,10, 10a,10b,11,12,12a-tetradecahydrocyclo-penta[5,6]naphtho [1,2-f]indazol-1-yl propanoate]
3.5	C[C@]12Cc3cnn(-c4cccc(C(=O)N5CCC[C@@H]5C(N)=O)c4)c3C=C1CC[C@H]1[C@@H]3CC[C@](OC(=O)C4CC4)(C(=O)SCF)[C@@]3(C)C[C@H](O)[C@@]12F [Example 55, (1R,3aS,3bS,10aS, 10bR,11S,12aS)-7-(3-{[(2R)-2-carbamoyl-pyrrolidin-1-yl]carbonyl}phenyl)-10b-fluoro-1-{[(fluoromethyl)sulfanyl]carbonyl}-11-hydroxy-10a,12a-dimethyl-1,2,3,3a,3b,4,5,7,10, 10a,10b,11,12,12a-tetradecahydrocyclo-penta[5,6]naphtho [1,2-f]indazol-1-yl cyclopropanecarboxylate]
2.1	CCC(=O)O[C@]1(C(=O)SCF)CC[C@H]2[C@@H]3C[C@H](C)C4=Cc5c(cnn5-c5cccc(C(=O)N[C@H](C)C(N)=O)c5)C[C@]4(C)[C@H]3[C@@H](O)C[C@@]21C [Example 24, (1R,3aS,3bS,5S,10aR, 10bS,11S,12aS)-7-(3-{[(1R)-2-amino-1-methyl-2-oxoethyl]carbamoyl}phenyl)-1-{[(fluoromethyl)sulfanyl]carbonyl}-11-hydroxy-5,10a,12a-trimethyl-1,2,3,3a,3b,4,5,7,10, 10a,10b,11,12,12a-tetradecahydrocyclo-penta[5,6]naphtho [1,2-f]indazol-1-yl propanoate]
1.4	CCC(=O)O[C@]1(C(=O)SCF)CC[C@H]2[C@@H]3CCC4=Cc5c(cnn5-c5cccc(C(=O)NCC(N)=O)c5)C[C@]4(C)[C@H]3[C@@H](O)C[C@@]21C [Example 18, (1R,3aS,3bS,10aR,10bS,11S, 12aS)-7-{3-[(2-amino-2-oxoethyl)carbamoyl]phenyl}-1-{[(fluoromethyl)sulfanyl]carbonyl}-11-hydroxy-10a, 12a-dimethyl-1,2,3,3a,3b,4,5,7,10,10a,10b,11,12,12a-tetradecahydrocyclopenta[5,6] naphtho[1,2-f]indazol-1-yl propanoate]

— patent US20100256104A1, “NOVEL AMIDE COMPOUNDS” (ASTRAZENECA R&D, priority 2009, published 2010)
